In patent US20050197336A1 (Miikana Therapeutics Corporation, priority 2004, published 2005):

Tests used:
[1] = test system: Histone deacetylase (HDAC), HeLa cell nuclear extract; assay: In vitro fluorescent histone deacetylase assay (Biomol kit, HeLa cell nuclear extract); format: biochemical; conditions: compound at 100 μM; HeLa cell nuclear extract as HDAC source; substrate 50 μM; 10 min at room temperature
Procedure: Histone deacetylase (HDAC) activity assays were performed using the HDAC fluorescent activity assay/drug discovery kit (Biomol Research Laboratories, Plymouth Meeting, Pa.) essentially according to the manufacturer's instructions. The included HeLa cell nuclear extract, which contains a mosaic of HDAC enzymes and other nuclear factors, was used as the source of HDAC activity. The final substrate concentration in the assay mixture was 50 μM. The reaction was allowed to proceed for 10 min at room temperature before stopping the reaction. Test compounds were prepared as 20 mM stock solutions in DMSO (Molecular Biology grade, Sigma-Aldrich Co. St. Louis, Mo.) and stored at −70° C. Serial dilutions of test compounds were prepared in assay buffer immediately prior to testing. DMSO was determined in a separate trial to have no significant effect on the activity of this assay at concentrations up to 5%; the final DMSO concentration in the wells was no more than 2% and therefore DMSO effects were safely neglected. Assays were performed in white polystyrene 96-well half-area assay plates (Corning, Corning, N.Y.) and measured on a Wallace 1420 fluorescent plate reader (Wallac Oy, Turku, Finland) with an excitation wavelength of 355 nm, an emission wavelength of 460 nm, and a 1 sec signal averaging time.

[2] = test system: MCF7 cells; assay: Whole cell cytotoxicity assay: Sulforhodamine B; format: cell-based, human; conditions: compound at 100 μM, MCF7 cell growth, 48 hours with drug, SRB staining; for inhibition at 100 µM: Homo sapiens
Procedure: The following procedure can be found on the Developmental Therapeutics Program NCI/NIH web site at http://dtp.nci.nih.gov/brancehes/btb/ivclsp.html.
1. Human tumor cell lines of HT29, A549 and MCF7 are grown in DMEM containing 10% fetal bovine serum and 2 mM L-glutamine. Cells are plated in a 96 well plate at a density of 5000 cells per well in 100 μL of growth medium and incubated at 37° C., 5% CO2, for 24 hours prior to the addition of experimental compounds.
2. Experimental drugs are solubilized in DMSO for a final concentration of 20 mM immediately prior to use. Drugs are further diluted in growth media for a total of nine drug concentrations and a growth control. At the 24 hour time point, one plate of cells is fixed in situ with TCA as a measurement of the cell population at time zero, or the time of drug addition.
3. The plates are further incubated with drug for an additional 48 hours.
4. The cells are fixed in situ by gently aspirating off the culture media and then adding 50 μL of ice cold 10% TCA per well and incubated at 4° C. for 60 minutes. The plates are washed with tap water five times and allowed to air dry for 5 minute.
5. 50 μL of a 0.4% (w/v) Sulforhodamine B solution in 1% (v/v) acetic acid is added per well and incubated for 30 minutes at room temperature.
6. Following staining, plates are washed five times with 1% acetic acid to remove any unbound dye and then allowed to air dry for 5 minutes.
7. Stain is solubilized with 100 μL of 10 mM Tris pH 10.5 per well and placed on an orbital rotator for 5 minutes.
8. Absorbance is read at 570 nm.

## 2-(4-{4-[(3-(pyrrolidin-1-ylmethyl)-2-furyl]phenylsulfonly}piperazin-1-yl)-1,3-thiazole-5-carboxylic acid hydroxyamide [Example 83]
[1]
  % inhibition HDAC @ 100 μM: 100%
[2]
  % inhibition MCF7 cells @ 100 μM: 98%

## COc1ccc(S(=O)(=O)N2CCN(c3ncc(C(=O)NO)s3)CC2)cc1OC [Example 2, 2-[4-(3,4-dimethoxy-benzenesulfonyl)-piperazin-1-yl]-thiazole-5-carboxylic acid hydroxyamide]
[1]
  % inhibition HDAC @ 100 μM: 99%
[2]
  inhibition at 100 µM: 98.3%

## O=C(NO)c1cnc(N2CCN(S(=O)(=O)c3ccc(OC(F)(F)F)cc3)CC2)s1 [Example 3, 2-[4-(4-trifluoromethoxy-benzenesulfonyl)-piperazin-1-yl]-thiazole-5-carboxylic acid hydroxyamide]
[1]
  % inhibition HDAC @ 100 μM: 93%
[2]
  inhibition at 100 µM: 95.3%

## Cc1ccc(S(=O)(=O)N2CCN(c3ncc(C(=O)NO)s3)CC2)cc1 [Example 4, 2-[4-(4-toluene-4-sulfonyl)-piperazin-1-yl]-thiazole-5-carboxylic acid hydroxyamide]
[1]
  % inhibition HDAC @ 100 μM: 100%
[2]
  inhibition at 100 µM: 95.4%

## O=C(NO)c1cnc(N2CCN(S(=O)(=O)c3ccc([N+](=O)[O-])cc3)CC2)s1 [Example 6, 2-[4-(4-nitro-benzenesulfonyl)-piperazin-1-yl]-thiazole-5-carboxylic acid hydroxyamide]
[1]
  % inhibition HDAC @ 100 μM: 97%
[2]
  inhibition at 100 µM: 95.1%

## O=C(NO)c1cnc(N2CCN(S(=O)(=O)c3cccs3)CC2)s1 [Example 8, 2-[4-(thiophene-2-benzenesulfonyl)-piperazin-1-Yl]-thiazole-5-carboxylic acid hydroxyamide]
[1]
  % inhibition HDAC @ 100 μM: 98%
[2]
  inhibition at 100 µM: 90.1%

## O=C(NO)c1cnc(N2CCN(S(=O)(=O)c3ccc(-c4ccccc4)cc3)CC2)s1 [Example 9, 2-[4-(biphenyl-4-sulfonyl)-piperazin-1-yl]-thiazole-5-carboxylic acid hydroxyamide]
[1]
  % inhibition HDAC @ 100 μM: 97%
[2]
  inhibition at 100 µM: 97.7%

## CN(C)c1cccc2c(S(=O)(=O)N3CCN(c4ncc(C(=O)NO)s4)CC3)cccc12 [Example 10, 2-[4-(5-dimethylamino-naphthalene-1-sulfonyl)-piperazin-1-yl]-thiazole-5-carboxylic acid hydroxyamide]
[1]
  % inhibition HDAC @ 100 μM: 88%
[2]
  inhibition at 100 µM: 97.8%

## O=C(NO)c1cnc(N2CCN(S(=O)(=O)c3ccc(F)cc3)CC2)s1 [Example 11, 2-[4-(4-fluoro-benzenesulfonyl)-piperazin-1-yl]-thiazole-5-carboxylic acid hydroxyamide]
[1]
  % inhibition HDAC @ 100 μM: 98%
[2]
  inhibition at 100 µM: 96.7%

## O=C(NO)c1cnc(N2CCN(S(=O)(=O)c3ccccc3)CC2)s1 [Example 12, 2-[4-(benzenesulfonyl)-piperazin-1-yl]-thiazole-5-carboxylic acid hydroxyamide]
[1]
  % inhibition HDAC @ 100 μM: 98%
[2]
  inhibition at 100 µM: 95.5%

## O=C(NO)c1cnc(N2CCN(S(=O)(=O)c3ccc(N4CCCC4)cc3)CC2)s1 [Example 13, 2-[4-(4-pyrolidinylbenzenesulfonyl)-piperazin-1-yl]-thiazole-5-carboxylic acid hydroxyamide]
[1]
  % inhibition HDAC @ 100 μM: 99%
[2]
  inhibition at 100 µM: 98.9%

## CN(C)S(=O)(=O)N1CCN(c2ncc(C(=O)NO)s2)CC1 [Example 14, 2-[4-(N,N-dimethylsulfonyl)-piperazin-1-yl]-thiazole-5-carboxylic acid hydroxyamide]
[1]
  % inhibition HDAC @ 100 μM: 98%
[2]
  inhibition at 100 µM: 89.8%

## CC(C)c1ccc(S(=O)(=O)N2CCN(c3ncc(C(=O)NO)s3)CC2)cc1 [Example 16, 2-[4-(4-isopropylphenylsulfonyl)-piperazin-1-yl]-thiazole-5-carboxylic acid hydroxyamide]
[1]
  % inhibition HDAC @ 100 μM: 100%
[2]
  inhibition at 100 µM: 90.9%

## O=C(NO)c1cnc(N2CCN(S(=O)(=O)c3cccc(Cl)c3)CC2)s1 [Example 18, 2-[4-(3-chlorophenylsulfonyl)-piperazin-1-yl]-thiazole-5-carboxylic acid hydroxyamide]
[1]
  % inhibition HDAC @ 100 μM: 95%
[2]
  inhibition at 100 µM: 96.6%

## CS(=O)(=O)c1ccc(S(=O)(=O)N2CCN(c3ncc(C(=O)NO)s3)CC2)cc1 [Example 19, 2-[4-(4-methylsufonylphenylsulfonyl)-piperazin-1-yl]-thiazole-5-carboxylic acid hydroxyamide]
[1]
  % inhibition HDAC @ 100 μM: 99%
[2]
  inhibition at 100 µM: 76.5%

## O=C(NO)c1cnc(N2CCN(S(=O)(=O)/C=C/c3ccccc3)CC2)s1 [Example 20, 2-[4-(trans-2-phenylethanelsulfonyl)piperazin-1-yl]-thiazole-5-carboxylic acid hydroxyamide]
[1]
  % inhibition HDAC @ 100 μM: 97%
[2]
  inhibition at 100 µM: 97.9%

## Cc1ccccc1S(=O)(=O)N1CCN(c2ncc(C(=O)NO)s2)CC1 [Example 21, 2-[4-(2-methylphenylsulfonyl)piperazin-1-yl]-thiazole-5-carboxylic acid hydroxyamide]
[1]
  % inhibition HDAC @ 100 μM: 100%
[2]
  inhibition at 100 µM: 97.1%

## Cc1cccc(S(=O)(=O)N2CCN(c3ncc(C(=O)NO)s3)CC2)c1 [Example 22, 2-[4-(3-methylphenylsulfonyl)-piperazin-1-yl]-thiazole-5-carboxylic acid hydroxyamide]
[1]
  % inhibition HDAC @ 100 μM: 100%
[2]
  inhibition at 100 µM: 98%

## CCCc1ccc(S(=O)(=O)N2CCN(c3ncc(C(=O)NO)s3)CC2)cc1 [Example 23, 2-[4-(4-n-propylphenylsulfonyl)-piperazin-1-yl]-thiazole-5-carboxylic acid hydroxyamide]
[1]
  % inhibition HDAC @ 100 μM: 99%
[2]
  inhibition at 100 µM: 96.7%

## Cc1cc(C)cc(S(=O)(=O)N2CCN(c3ncc(C(=O)NO)s3)CC2)c1 [Example 24, 2-[4-(3,5-dimethylphenylsulfonyl)-piperazin-1-yl]-thiazole-5-carboxylic acid hydroxyamide]
[1]
  % inhibition HDAC @ 100 μM: 100%
[2]
  inhibition at 100 µM: 95.3%

## CC(C)(C)c1ccc(S(=O)(=O)N2CCN(c3ncc(C(=O)NO)s3)CC2)cc1 [Example 25, 2-[4-(4-t-butylphenylsulfonyl)-piperazin-1-yl]-thiazole-5-carboxylic acid hydroxyamide]
[1]
  % inhibition HDAC @ 100 μM: 98%
[2]
  inhibition at 100 µM: 90.1%

## O=C(NO)c1cnc(N2CCN(S(=O)(=O)Cc3ccccc3)CC2)s1 [Example 26, 2-[4-(benzylsulfonyl)piperazin-1-yl]-thiazole-5-carboxylic acid hydroxyamide]
[1]
  % inhibition HDAC @ 100 μM: 98%
[2]
  inhibition at 100 µM: 90%

## Cc1noc(C)c1S(=O)(=O)N1CCN(c2ncc(C(=O)NO)s2)CC1 [Example 27, 2-[4-(3,5-dimethylisoxazolesulfonyl)-pipiperazin-1-yl]-thiazole-5-carboxylic acid hydroxyamide]
[1]
  % inhibition HDAC @ 100 μM: 99%
[2]
  inhibition at 100 µM: 88.5%

## CN(C)c1ccc(S(=O)(=O)N2CCN(c3ncc(C(=O)NO)s3)CC2)cc1 [Example 29, 2-[4-(4-dimethylaminophenylsulfonyl)-piperazin-1-yl]-thiazole-5-carboxylic acid hydroxyamide]
[1]
  % inhibition HDAC @ 100 μM: 100%
[2]
  inhibition at 100 µM: 98.5%

## Cc1ccc(S(=O)(=O)N2CCN(c3ncc(C(=O)NO)s3)CC2)cc1Cl [Example 30, 2-[4-(3-chloro-4-methylphenylsulfonyl)-piperazin-1-yl]-thiazole-5-carboxylic acid hydroxyamide]
[1]
  % inhibition HDAC @ 100 μM: 99%
[2]
  inhibition at 100 µM: 97.9%

## Cc1c(Cl)cccc1S(=O)(=O)N1CCN(c2ncc(C(=O)NO)s2)CC1 [Example 32, 2-[4-(3-chloro-2-methylphenylsulfonyl)-piperazin-1-yl]-thiazole-5-carboxylic acid hydroxyamide]
[1]
  % inhibition HDAC @ 100 μM: 99%
[2]
  inhibition at 100 µM: 98.1%

## O=C(NO)c1cnc(N2CCN(S(=O)(=O)c3ccc(-n4cccn4)cc3)CC2)s1 [Example 101, 2-[4-(4-pyrazolylbenzenesulfonyl)-piperazin-1-yl]-thiazole-5-carboxylic acid hydroxyamide]
[2]
  inhibition at 100 µM: 98.1%
